The inhibition is the share of the control response that was lost under treatment. The IC50 is the concentration that gives 50% inhibition.

One test has as its target T1, mMGL (Mus musculus, UniProt O35678).
T1 construct: made in house; host or cells: E. coli (lysate)
T1 sequence (O35678 1-303): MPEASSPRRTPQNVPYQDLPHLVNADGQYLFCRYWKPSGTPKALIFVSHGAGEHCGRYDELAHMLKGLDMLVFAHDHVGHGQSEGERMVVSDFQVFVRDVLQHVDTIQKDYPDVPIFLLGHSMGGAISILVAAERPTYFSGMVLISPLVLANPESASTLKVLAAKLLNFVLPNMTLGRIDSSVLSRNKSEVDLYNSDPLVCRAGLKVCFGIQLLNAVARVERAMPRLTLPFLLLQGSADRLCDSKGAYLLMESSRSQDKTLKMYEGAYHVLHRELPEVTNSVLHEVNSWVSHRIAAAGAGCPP
In words: mMGL off-target inhibition. Type of test: biochemical. Particulars: read-out: mMGL off-target inhibition [% inhibition at 100 μM]. The procedure: Lysates from E. coli expressing mMGL were treated with 100 μM Inhibitors and incubated with 1 mM rac-OG substrate for 10 min. Enzyme activity was measured using the Free Glycerol Reagent. Samples measured in triplicates.

A further test deals with rhesus monkey ATGL. In words: Rhesus monkey ATGL inhibition, Expi lysates + CGI-58. The class given is biochemical. On the procedure:
Lysates from Expi cells overexpressing ATGL from rhesus monkeys (Macaca mulatta) were incubated with recombinant purified ATGL co-activator CGI-58 and ATGL inhibitors at 50 μM. Subsequently, substrate containing radiolabeled triolein was added and liberated FA were extracted and quantified by liquid scintillation. Inhibitors were dissolved in DMSO which was used as control. Samples were measured in triplicates.

Test [1] has as its system differentiated SGBS adipocytes. Put plainly: Isoproterenol-stimulated lipolysis in differentiated SGBS adipocytes. The class given is cell-based. To be noted: Homo sapiens, 2 h pretreatment, 1 μM isoproterenol 1 h. On the procedure: Human differentiated SGBS adipocytes were pretreated with DMSO or ATGL inhibitors for 2 h. Subsequently, lipolysis was stimulated with 1 μM Isoproterenol for 1 h and fatty acid release was determined from media via NEFA Reagent (Wako Diagnostics). Samples were measured in triplicates.
Human differentiated SGBS adipocytes were pretreated with DMSO or ATGL inhibitors for 2 h. Subsequently, lipolysis was stimulated with 1 μM Isoproterenol for 1 h and glycerol release was determined from media via Free glycerol reagent (Sigma Aldrich). Samples were measured in triplicates.

The next test has as its target T2, rat ATGL (Rattus norvegicus, UniProt P0C548).
T2 construct: made in house; host or cells: Expi cells (lysate)
T2 sequence (P0C548 1-478): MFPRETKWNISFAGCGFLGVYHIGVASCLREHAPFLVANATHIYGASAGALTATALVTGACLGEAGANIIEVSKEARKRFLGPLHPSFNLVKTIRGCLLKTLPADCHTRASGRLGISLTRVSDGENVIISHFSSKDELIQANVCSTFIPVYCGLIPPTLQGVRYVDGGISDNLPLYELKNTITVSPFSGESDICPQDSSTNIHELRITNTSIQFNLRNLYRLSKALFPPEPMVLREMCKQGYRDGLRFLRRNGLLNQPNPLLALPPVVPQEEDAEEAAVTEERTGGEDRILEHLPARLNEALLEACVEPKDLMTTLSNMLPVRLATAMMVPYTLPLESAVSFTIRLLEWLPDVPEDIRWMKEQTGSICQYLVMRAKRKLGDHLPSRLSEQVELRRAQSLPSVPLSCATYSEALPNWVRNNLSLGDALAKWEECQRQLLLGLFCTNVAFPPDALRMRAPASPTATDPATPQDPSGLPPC
In words: Rat ATGL inhibition, Expi lysates + CGI-58. The class given is biochemical. The procedure:
Lysates from Expi cells overexpressing ATGL from rat (Rattus norvegicus) were incubated with recombinant purified ATGL co-activator CGI-58 and ATGL inhibitors at 50 μM. Subsequently, substrate containing radiolabeled triolein was added and liberated FA were extracted and quantified by liquid scintillation. Inhibitors were dissolved in DMSO which was used as control. Samples were measured in triplicates.

The subject of the next test is goat ATGL. Put plainly: Goat ATGL inhibition, Expi lysates + CGI-58. Type of test: biochemical. The procedure:
Lysates from Expi cells overexpressing ATGL from goat (Capra hircus) were incubated with recombinant purified ATGL co-activator CGI-58 and ATGL inhibitors at 50 μM. Subsequently, substrate containing radiolabeled triolein was added and liberated FA were extracted and quantified by liquid scintillation. Inhibitors were dissolved in DMSO which was used as control. Samples were measured in triplicates.

A further test has as its target T3, hPNPLA9 (Homo sapiens, UniProt O60733).
T3 construct: made in house; host or cells: Expi cells (lysate)
T3 sequence (O60733 1-806): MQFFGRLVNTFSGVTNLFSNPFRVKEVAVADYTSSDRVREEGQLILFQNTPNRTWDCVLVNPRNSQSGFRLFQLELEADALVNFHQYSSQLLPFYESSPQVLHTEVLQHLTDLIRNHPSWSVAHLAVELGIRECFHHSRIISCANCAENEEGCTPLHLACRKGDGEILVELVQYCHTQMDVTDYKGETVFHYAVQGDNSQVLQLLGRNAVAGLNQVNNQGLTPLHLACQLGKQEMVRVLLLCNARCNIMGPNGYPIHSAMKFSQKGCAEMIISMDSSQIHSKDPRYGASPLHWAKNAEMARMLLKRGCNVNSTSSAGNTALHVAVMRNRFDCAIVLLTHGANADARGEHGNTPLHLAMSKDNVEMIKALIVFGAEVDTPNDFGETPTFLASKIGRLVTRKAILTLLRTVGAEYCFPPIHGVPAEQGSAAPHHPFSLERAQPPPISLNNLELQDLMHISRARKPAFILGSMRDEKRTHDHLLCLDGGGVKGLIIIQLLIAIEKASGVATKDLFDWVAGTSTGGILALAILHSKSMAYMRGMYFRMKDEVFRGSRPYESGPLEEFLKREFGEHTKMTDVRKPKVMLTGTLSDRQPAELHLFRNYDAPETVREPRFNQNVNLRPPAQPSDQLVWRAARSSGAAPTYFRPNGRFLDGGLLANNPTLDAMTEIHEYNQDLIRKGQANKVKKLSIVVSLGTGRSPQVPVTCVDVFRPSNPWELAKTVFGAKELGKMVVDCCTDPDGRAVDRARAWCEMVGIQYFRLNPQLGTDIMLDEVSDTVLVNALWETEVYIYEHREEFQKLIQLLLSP
Put plainly: hPNPLA9 off-target inhibition. The class given is biochemical. To be noted: read-out: hPNPLA9 off-target inhibition [% inhibition at 100 μM]. The procedure: Expi lysates expressing hPNPLA9 were treated with 100 μM Inhibitors and incubated with 1 mM C8 monoacylglycerol substrate (containing 5 mM CHAPS, 50 mM NaPh buffer ph7.4, 0.15 M NaCl) for 40 min. Glycerol release was determined via Free glycerol reagent (Sigma Aldrich). Samples measured in triplicates, […]

The test system of the next test is pig vWAT. Put plainly: Pig vWAT inhibition, visceral adipose tissue lysates + CGI-58. The class given is biochemical. On the procedure:
Lysates from visceral adipose tissue of pigs (Sus scrofa) were incubated with recombinant purified ATGL co-activator CGI-58 and ATGL inhibitors at 50 μM. Subsequently, substrate containing radiolabeled triolein was added and liberated FA were extracted and quantified by liquid scintillation. Inhibitors were dissolved in DMSO which was used as control. Samples were measured in triplicates.

Setting [2] is: fatty acid release, read-out: IC50 SGBS FA release.
[3] abbreviates: glycerol release, read-out: IC50 SGBS glycerol release.

Like-named read-outs stand apart in the source and are kept apart here.

With `CCOc1ccc(-c2nc(C(=O)OCc3ccsc3)cs2)cc1` [Example 215, Thiophen-3-ylmethyl 2-(4-ethoxyphenyl)thiazole-4-carboxylate], the inhibition at 100 µM on mMGL and at hPNPLA9 was 0% throughout. Further, in the test on rhesus monkey ATGL, the “rhesus monkey ATGL inhibition [% inhibition at 50 μM]” value came out at 70%. In addition, the IC50 in test [1] (setting [2]) was found to be 3000 nM; in test [1] (setting [3]) it was 4000 nM. For the same compound, at rat ATGL, the inhibition at 50 µM is 50%. In addition, the “goat ATGL inhibition [% inhibition at 50 μM” value in the test with goat ATGL is 50%. Also, the “pig vWAT inhibition [% inhibition at 50 μM” value in the test on pig vWAT was 15%.

Regarding `CCOc1ccc(-c2nc(C(=O)OCc3ccoc3)cs2)cc1` [Example 216, Furan-3-ylmethyl 2-(4-ethoxyphenyl)thiazole-4-carboxylate], the inhibition at 100 µM at mMGL and on hPNPLA9 was 0% in each case. Further, the “rhesus monkey ATGL inhibition [% inhibition at 50 μM]” value in the test with rhesus monkey ATGL is given as 70%. In addition, the IC50 in test [1] (setting [2]) turned out to be 800 nM; in test [1] (setting [3]), 1000 nM. The inhibition at 50 µM on rat ATGL came to 50%. Also, the “goat ATGL inhibition [% inhibition at 50 μM” value with goat ATGL is recorded as 50%. Also, the “pig vWAT inhibition [% inhibition at 50 μM” value with pig vWAT stood at 15%.

The values are drawn from US20220289698A1, “INHIBITORS OF HUMAN ATGL” (Karl-Franzens-Universität Graz, priority 2019, published 2022).
